Data published in paper PMC4426599, “Structure and mechanism of an antibiotics-synthesizing 3-hydroxykynurenine C-methyltransferase” (Scientific Reports, 2015).

Assays:
Ss-SibL (SibL) [1] = target: T1, Ss-SibL (SibL) (Streptosporangium sibiricum, UniProt C0LTM6); experiment: X-ray crystal structure of ternary complex with SAH, […] A; type: binding; conditions: SAH bound; D-/L-3-HK used in crystallization; pH 7.7; substrate site
T1 construct: recombinant His6-tagged (pET-21b), E. coli BL21(DE3), Ni-NTA and gel filtration; homodimer; tag removal not described

Ss-SibL (SibL) [2] = target: T1, Ss-SibL (SibL); experiment: X-ray crystal structure of binary complex, […] A; type: binding; conditions: crystals obtained by using SAM, modelled as SAH; pH 7.7; SAM site; also bound in ternary complex 4U1Q
[3] = target: the molecule itself; experiment: crystal structure; crystals of apo Ss-SibL, of the binary complex with SAH and of the ternary complex with SAH and 3-HK; sitting-drop vapour diffusion; homodimer seen in the crystal

## Nc1c(O)cccc1C(=O)C[C@H](N)C(=O)O [L-3-HK]
Ss-SibL (SibL) [1]
  X-ray crystal structure of ternary complex with SAH, 2.1 A: the electron densities clearly indicate that the bound substrate is L-3-HK

## Nc1ncnc2c1ncn2[C@@H]1O[C@H](CSCC[C@H](N)C(=O)O)[C@@H](O)[C@H]1O [S-adenosylhomocysteine]
Ss-SibL (SibL) [2]
  X-ray crystal structure of binary complex, 2.6 A: the binary Ss-SibL/SAH and the ternary Ss-SibL/SAH/3HK complex crystals diffracted to higher resolution

B1: Streptosporangium sibiricum SibL (enzyme)
chain: MSSELSALVPVLFGHAAFQQLNAGCQLGLFELLHERGPLSAEEVADALRLPRRSADILLLGTTALGLSTVTDGGYRNGAPIGAAFRDGLWPVLRDIVQYQDKIAYQPAADYVESLRTGQNAGIRHFPGTTRDLYSRLAAVPGLEELFYRGMHAWSQLSNPVLLAQPDFTRVHRVLDVGGGDAVNAVALARAHPSLRVTVLDRPGALEVARKTIAEAGLEERVRTHAADIFTDSYPAGHDCVLFAHQLVIWSPEQNLTLLRKAYDAVEPGGRVLVFNAFTDDDRTGPLYAALDNVYFTTLPFRHSTIHRWADCESWLREAGFTDVGRTAPPGWTPHGVVSGSRPR
notes: SibL, SAM-dependent 3-hydroxykynurenine C-methyltransferase of Streptosporangium sibiricum; amplified by PCR from S. sibiricum genomic DNA and cloned into pET-21b; Homodimer in the crystals; The ternary complex was first phased with selenomethionine-substituted protein; also called Ss-SibL; 3-hydroxykynurenine C-methyltransferase; source: E. coli BL21 (DE3), purified (Ni-NTA, Superdex-200 size …)
[3]
  stoichiometry N: 2
